Laboratory results reported in patent US7981903B2, “2-[2-{phenylamino}-1H-pyrrolo[2,3-D]pyrimidin-4-yl)amino] benzamide derivatives as IGF-1R inhibitors for the treatment of cancer” (GlaxoSmithKline LLC, priority 2007, dated 2011).

Assays:
human IR (hIR) = target: T1, human IR (hIR) (Homo sapiens, UniProt P06213); experiment: TR-FRET kinase assay of purified hIR; assay type: biochemical; conditions: activated hIR 0.5 nM, 10 μM ATP, values given as pIC50 category
T1 construct: containing amino acid residues 979-1382 of human IR; made in house; host or cells: Sf9 cells (baculovirus), same process as hIGF1R
T1 sequence (P06213 979-1382): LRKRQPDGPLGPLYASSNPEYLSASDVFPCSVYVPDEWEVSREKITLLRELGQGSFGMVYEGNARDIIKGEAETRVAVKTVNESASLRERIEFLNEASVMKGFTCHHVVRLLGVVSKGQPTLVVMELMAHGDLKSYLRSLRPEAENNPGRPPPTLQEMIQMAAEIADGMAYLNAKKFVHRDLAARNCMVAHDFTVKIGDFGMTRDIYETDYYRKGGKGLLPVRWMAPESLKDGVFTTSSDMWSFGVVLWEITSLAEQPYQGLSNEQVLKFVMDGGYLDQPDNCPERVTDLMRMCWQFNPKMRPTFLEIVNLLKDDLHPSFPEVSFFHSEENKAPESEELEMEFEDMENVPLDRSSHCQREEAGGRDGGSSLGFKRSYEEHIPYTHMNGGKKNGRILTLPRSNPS

Colo205 = experiment: Inhibition of cell proliferation (CellTiter-Glo or InCell analyzer), Colo205; assay type: cell-based; conditions: Homo sapiens, COLO 205, 72 h / 3 days, values given as IC50 category
Method in brief: In one

[1] = target: T2, NIH-3T3 cells overexpressing human IGF-1R (Homo sapiens, UniProt P08069); experiment: IGF-1R cellular autophosphorylation (DELFIA); assay type: cell-based
T2 construct: expressed in transfected cells; host or cells: NIH-3T3 (mouse fibroblasts)
T2 sequence (P08069 31-1367): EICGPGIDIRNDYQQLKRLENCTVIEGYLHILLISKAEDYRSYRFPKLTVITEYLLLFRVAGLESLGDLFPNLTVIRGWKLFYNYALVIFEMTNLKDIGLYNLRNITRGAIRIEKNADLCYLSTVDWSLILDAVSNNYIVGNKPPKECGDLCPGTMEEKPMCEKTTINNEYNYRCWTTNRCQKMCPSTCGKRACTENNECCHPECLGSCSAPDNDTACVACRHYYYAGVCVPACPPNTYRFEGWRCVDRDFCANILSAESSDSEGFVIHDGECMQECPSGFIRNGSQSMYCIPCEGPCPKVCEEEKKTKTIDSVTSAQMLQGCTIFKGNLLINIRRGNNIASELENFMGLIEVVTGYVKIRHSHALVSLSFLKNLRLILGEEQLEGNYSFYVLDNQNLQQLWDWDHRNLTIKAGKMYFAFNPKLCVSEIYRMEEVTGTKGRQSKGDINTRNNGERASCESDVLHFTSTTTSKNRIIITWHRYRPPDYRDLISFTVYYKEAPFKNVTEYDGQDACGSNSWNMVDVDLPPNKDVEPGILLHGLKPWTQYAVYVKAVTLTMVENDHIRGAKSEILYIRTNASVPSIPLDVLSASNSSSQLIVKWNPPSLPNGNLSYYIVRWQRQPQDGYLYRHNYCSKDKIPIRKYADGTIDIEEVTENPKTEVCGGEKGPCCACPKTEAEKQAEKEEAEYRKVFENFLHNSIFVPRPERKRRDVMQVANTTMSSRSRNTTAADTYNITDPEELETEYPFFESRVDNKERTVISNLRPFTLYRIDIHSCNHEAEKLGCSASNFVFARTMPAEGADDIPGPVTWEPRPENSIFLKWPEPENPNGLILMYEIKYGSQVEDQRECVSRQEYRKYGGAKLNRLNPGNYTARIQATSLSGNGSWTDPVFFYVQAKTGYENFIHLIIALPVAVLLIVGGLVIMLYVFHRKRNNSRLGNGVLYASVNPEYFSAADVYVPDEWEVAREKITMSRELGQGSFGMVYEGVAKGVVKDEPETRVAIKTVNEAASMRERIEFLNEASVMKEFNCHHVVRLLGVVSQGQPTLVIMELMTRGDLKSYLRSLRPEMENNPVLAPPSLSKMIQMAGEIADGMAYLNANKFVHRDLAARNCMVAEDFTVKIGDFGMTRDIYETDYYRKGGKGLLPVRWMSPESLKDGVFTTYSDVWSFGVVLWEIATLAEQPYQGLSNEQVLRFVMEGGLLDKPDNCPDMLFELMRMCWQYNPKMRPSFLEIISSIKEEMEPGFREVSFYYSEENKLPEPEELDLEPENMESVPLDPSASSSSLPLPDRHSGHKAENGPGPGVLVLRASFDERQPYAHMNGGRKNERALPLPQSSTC
Method in brief: (§1)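 Receptor autophosphorylation measured by DELFIA, capturing IGF-1R or IRβ and detecting with europium anti-pTyr, reported as percent of IGF-1- or insulin-stimulated signal. Compounds (30 uM to 1.5 nM) added 2 h before ligand, then 15 min stimulation (IGF-1 30 ng/ml or insulin 3 ug/ml).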

[2] = target: T3, NIH-3T3 cells overexpressing human IR (Homo sapiens, UniProt P06213); experiment: IR cellular autophosphorylation (DELFIA); assay type: cell-based; conditions: 2 h compound, insulin 3 ug/ml for 15 minutes, IC50 category
T3 construct: expressed in transfected cells; host or cells: NIH-3T3 (mouse fibroblasts)
T3 sequence (P06213 28-1382): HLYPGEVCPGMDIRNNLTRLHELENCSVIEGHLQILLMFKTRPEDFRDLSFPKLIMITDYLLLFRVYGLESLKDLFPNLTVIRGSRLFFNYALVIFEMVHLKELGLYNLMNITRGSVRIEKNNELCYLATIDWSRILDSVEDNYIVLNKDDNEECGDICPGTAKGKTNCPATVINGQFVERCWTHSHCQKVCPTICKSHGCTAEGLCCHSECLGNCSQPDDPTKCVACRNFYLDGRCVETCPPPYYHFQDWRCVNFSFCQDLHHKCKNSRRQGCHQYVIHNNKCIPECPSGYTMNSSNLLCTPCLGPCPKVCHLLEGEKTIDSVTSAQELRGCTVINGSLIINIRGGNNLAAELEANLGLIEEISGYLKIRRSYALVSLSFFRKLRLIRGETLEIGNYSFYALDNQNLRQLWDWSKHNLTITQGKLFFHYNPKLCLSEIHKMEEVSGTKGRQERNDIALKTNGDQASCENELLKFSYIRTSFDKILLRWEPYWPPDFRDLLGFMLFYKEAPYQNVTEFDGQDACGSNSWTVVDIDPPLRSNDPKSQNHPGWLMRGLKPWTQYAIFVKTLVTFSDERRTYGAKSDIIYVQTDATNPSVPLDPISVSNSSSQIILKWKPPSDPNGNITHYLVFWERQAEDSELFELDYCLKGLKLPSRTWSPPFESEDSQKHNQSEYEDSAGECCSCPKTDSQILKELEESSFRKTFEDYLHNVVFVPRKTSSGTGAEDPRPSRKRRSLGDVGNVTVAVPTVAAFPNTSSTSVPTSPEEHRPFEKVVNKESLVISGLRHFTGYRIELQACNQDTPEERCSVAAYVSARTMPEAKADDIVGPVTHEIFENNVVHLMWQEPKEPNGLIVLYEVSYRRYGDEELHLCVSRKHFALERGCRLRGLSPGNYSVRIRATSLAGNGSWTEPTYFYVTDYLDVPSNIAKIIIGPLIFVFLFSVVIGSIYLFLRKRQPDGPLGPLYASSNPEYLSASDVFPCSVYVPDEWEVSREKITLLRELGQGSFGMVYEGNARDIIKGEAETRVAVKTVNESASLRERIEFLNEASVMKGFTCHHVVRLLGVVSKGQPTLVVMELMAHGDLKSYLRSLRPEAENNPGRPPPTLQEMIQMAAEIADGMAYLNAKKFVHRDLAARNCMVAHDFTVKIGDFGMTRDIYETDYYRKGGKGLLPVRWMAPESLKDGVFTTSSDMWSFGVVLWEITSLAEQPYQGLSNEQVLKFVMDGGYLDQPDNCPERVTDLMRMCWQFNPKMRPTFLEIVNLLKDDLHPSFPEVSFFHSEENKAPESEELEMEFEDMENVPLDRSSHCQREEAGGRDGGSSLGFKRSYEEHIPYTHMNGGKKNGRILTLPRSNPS
Method in brief: as §1

Work on CNC(=O)c1c(F)cc(Cl)cc1Nc1nc(Nc2cc3c(cc2OC)CCCN3C(=O)CN2CCCC2)nc2[nH]ccc12 [Example 174, 4-chloro-2-fluoro-N-methyl-6-[(2-{[6-(methyloxy)-1-(1-pyrrolidinylacetyl)-1,2,3,4-tetrahydro-7-quinolinyl]amino}-1H-pyrrolo[2,3-d]pyrimidin-4-yl)amino]benzamide] yielded an IC50 (human IR (hIR)) of 1.26 to 3.98 nM, an IC50 (Colo205) of 250 to 1000 nM and an IC50 [1] of 100 to 500 nM. The IC50 [2] was 100 to 500 nM.
For CCCN1CCC(c2ccc(Nc3nc(Nc4cc(F)c(F)cc4C(N)=O)c4cc[nH]c4n3)c(OC)c2)CC1 [Example 98, 4,5-difluoro-2-[(2-{[2-(methyloxy)-4-(1-propyl-4-piperidinyl)phenyl]amino}-1H-pyrrolo[2,3-d]pyrimidin-4-yl)amino]benzamide], the IC50 (human IR (hIR)) was 0.251 to 1 nM, the IC50 (Colo205) was < 250 nM and the IC50 [1] was < 100 nM. The IC50 [2] was < 100 nM.
For COc1cc(N2CCOCC2)ccc1Nc1nc(Nc2cc(F)ccc2C(N)=O)c2cc[nH]c2n1 [Example 83, 4-fluoro-2-[(2-{[2-(methyloxy)-4-(4-morpholinyl)phenyl]amino}-1H-pyrrolo[2,3-d]pyrimidin-4-yl)amino]benzamide], the IC50 (human IR (hIR)) was 1.26 to 3.98 nM, the IC50 (Colo205) was > 1000 nM and the IC50 [1] was < 100 nM. For the same molecule, the IC50 [2] was < 100 nM.
In the case of COc1cc(N2CCN(C(C)C)CC2)ccc1Nc1nc(Nc2cccc3c2C(=O)NC3)c2cc[nH]c2n1 [Example 199, 7-[(2-{[4-[4-(1-methylethyl)-1-piperazinyl]-2-(methyloxy)phenyl]amino}-1H-pyrrolo[2,3-d]pyrimidin-4-yl)amino]-2,3-dihydro-1H-isoindol-1-one], the IC50 (human IR (hIR)) is reported as 1.26 to 3.98 nM, the IC50 (Colo205) is reported as < 250 nM and the IC50 [1] is reported as < 100 nM. For the same molecule, the IC50 [2] was < 100 nM.
For COc1cc(N2CCC(N3CC[C@H](F)C3)CC2)ccc1Nc1nc(Nc2cccc(F)c2C(N)=O)c2cc[nH]c2n1 [Example 43, 2-fluoro-6-[(2-{[4-{4-[(3S)-3-fluoro-1-pyrrolidinyl]-1-piperidinyl}-2-(methyloxy)phenyl]amino}-1H-pyrrolo[2,3-d]pyrimidin-4-yl)amino]benzamide], the IC50 (human IR (hIR)) was 1.26 to 3.98 nM, the IC50 (Colo205) was 250 to 1000 nM and the IC50 [1] was 100 to 500 nM. It also gave an IC50 [2] of 100 to 500 nM.
With CNC(=O)c1c(Nc2nc(Nc3cc4c(cc3OC)CCCN4C(=O)CN(C)C)nc3[nH]ccc23)ccc(F)c1F [Example 163, 6-[(2-{[1-(N,N-dimethylglycyl)-6-(methyloxy)-1,2,3,4-tetrahydro-7-quinolinyl]amino}-1H-pyrrolo[2,3-d]pyrimidin-4-yl)amino]-2,3-difluoro-N-methylbenzamide] the IC50 (human IR (hIR)) was 1.26 to 3.98 nM, the IC50 (Colo205) was 250 to 1000 nM and the IC50 [1] was < 100 nM. For the same molecule, the IC50 [2] was < 100 nM.
For COc1cc(C2CCN(C(C)C)CC2)ccc1Nc1nc(Nc2cc(F)c(F)cc2C(N)=O)c2cc[nH]c2n1 [Example 97, 4,5-difluoro-2-[(2-{[4-[1-(1-methylethyl)-4-piperidinyl]-2-(methyloxy)phenyl]amino}-1H-pyrrolo[2,3-d]pyrimidin-4-yl)amino]benzamide], the IC50 (human IR (hIR)) was 0.251 to 1 nM, the IC50 (Colo205) was < 250 nM and the IC50 [1] was < 100 nM. The IC50 [2] was < 100 nM.
In the case of COc1cc(N2CCCN(C)CC2)ccc1Nc1nc(Nc2cccc(F)c2C(N)=O)c2cc[nH]c2n1 [Example 209, 2-fluoro-6-[(2-{[4-(4-methylhexahydro-1H-1,4-diazepin-1-yl)-2-(methyloxy)phenyl]amino}-1H-pyrrolo[2,3-d]pyrimidin-4-yl)amino]benzamide], the IC50 (human IR (hIR)) is reported as 1.26 to 3.98 nM, the IC50 (Colo205) is reported as < 250 nM and the IC50 [1] is reported as 100 to 500 nM. For the same molecule, the IC50 [2] was 100 to 500 nM.
In the case of CCCN1CCC=C(c2ccc(Nc3nc(Nc4cc(F)ccc4C(N)=O)c4cc[nH]c4n3)c(OC)c2)C1 [Example 70, 4-fluoro-2-[(2-{[2-(methyloxy)-4-(1-propyl-1,2,5,6-tetrahydro-3-pyridinyl)phenyl]amino}-1H-pyrrolo[2,3-d]pyrimidin-4-yl)amino]benzamide], the IC50 (human IR (hIR)) is reported as 0.251 to 1 nM, the IC50 (Colo205) is reported as < 250 nM and the IC50 [1] is reported as < 100 nM. The IC50 [2] was < 100 nM.
In the case of CCCN(C)CC(=O)N1CCc2cc(OC)c(Nc3nc(Nc4cccc(F)c4C(=O)NC)c4cc[nH]c4n3)cc21 [Example 167, 2-fluoro-N-methyl-6-[(2-{[5-(methyloxy)-1-(N-methyl-N-propylglycyl)-2,3-dihydro-1H-indol-6-yl]amino}-1H-pyrrolo[2,3-d]pyrimidin-4-yl)amino]benzamide], the IC50 (human IR (hIR)) is reported as 1.26 to 3.98 nM, the IC50 (Colo205) is reported as 250 to 1000 nM and the IC50 [1] is reported as 100 to 500 nM. The IC50 [2] was 100 to 500 nM.
With COc1cc2c(cc1Nc1nc(Nc3cccc(F)c3C(=O)NC(C)C)c3cc[nH]c3n1)N(C(=O)CN(C)C)CC2 [Example 158, 2-[(2-{[1-(N,N-dimethylglycyl)-5-(methyloxy)-2,3-dihydro-1H-indol-6-yl]amino}-1H-pyrrolo[2,3-d]pyrimidin-4-yl)amino]-6-fluoro-N-(1-methylethyl)benzamide] the IC50 (human IR (hIR)) was 1.26 to 3.98 nM, the IC50 (Colo205) was 250 to 1000 nM and the IC50 [1] was 100 to 500 nM. For the same molecule, the IC50 [2] was > 500 nM.
For COc1cc2c(cc1Nc1nc(Nc3cc(F)cc(F)c3C(=O)NC(C)C)c3cc[nH]c3n1)N(C(=O)CN(C)C)CC2 [Example 153, 2-[(2-{[1-(N,N-dimethylglycyl)-5-(methyloxy)-2,3-dihydro-1H-indol-6-yl]amino}-1H-pyrrolo[2,3-d]pyrimidin-4-yl)amino]-4,6-difluoro-N-(1-methylethyl)benzamide], the IC50 (human IR (hIR)) was 1.26 to 3.98 nM, the IC50 (Colo205) was > 1000 nM and the IC50 [1] was 100 to 500 nM. For the same molecule, the IC50 [2] was > 500 nM.
In the case of COc1cc2c(cc1Nc1nc(Nc3cccc(F)c3C(N)=O)c3cc[nH]c3n1)N(C(=O)CN1CCCC1)CC2 [Example 138, 2-fluoro-6-[(2-{[5-(methyloxy)-1-(1-pyrrolidinylacetyl)-2,3-dihydro-1H-indol-6-yl]amino}-1H-pyrrolo[2,3-d]pyrimidin-4-yl)amino]benzamide], the IC50 (human IR (hIR)) is reported as 0.251 to 1 nM, the IC50 (Colo205) is reported as 250 to 1000 nM and the IC50 [1] is reported as < 100 nM. For the same molecule, the IC50 [2] was < 100 nM.
For COc1cc(N2CCC(N3CCN(CCF)CC3)CC2)ccc1Nc1nc(Nc2cccc(F)c2C(N)=O)c2cc[nH]c2n1 [Example 114, 2-fluoro-6-[(2-{[4-{4-[4-(2-fluoroethyl)-1-piperazinyl]-1-piperidinyl}-2-(methyloxy)phenyl]amino}-1H-pyrrolo[2,3-d]pyrimidin-4-yl)amino]benzamide], the IC50 (human IR (hIR)) was 1.26 to 3.98 nM, the IC50 (Colo205) was < 250 nM and the IC50 [1] was < 100 nM. For the same molecule, the IC50 [2] was < 100 nM.
COc1cc(N2CCC(N3CCOCC3)CC2)ccc1Nc1nc(Nc2cc(F)c(F)cc2C(N)=O)c2cc[nH]c2n1 [Example 101, 4,5-difluoro-2-{[2-({2-(methyloxy)-4-[4-(4-morpholinyl)-1-piperidinyl]phenyl}amino)-1H-pyrrolo[2,3-d]pyrimidin-4-yl]amino}benzamide] was tested, and the IC50 (human IR (hIR)) was 0.251 to 1 nM, the IC50 (Colo205) was 250 to 1000 nM and the IC50 [1] was < 100 nM. For the same molecule, the IC50 [2] was > 500 nM.
For COc1cc(N2CCN(CC3CC3)CC2)ccc1Nc1nc(Nc2cc(F)ccc2C(N)=O)c2cc[nH]c2n1 [Example 81, 2-[(2-{[4-[4-(cyclopropylmethyl)-1-piperazinyl]-2-(methyloxy)phenyl]amino}-1H-pyrrolo[2,3-d]pyrimidin-4-yl)amino]-4-fluorobenzamide], the IC50 (human IR (hIR)) was 1.26 to 3.98 nM, the IC50 (Colo205) was < 250 nM and the IC50 [1] was < 100 nM. It also gave an IC50 [2] of 100 to 500 nM.
For COc1cc2c(cc1Nc1nc(Nc3cc(F)cc(F)c3C(=O)NCc3ccc(F)cc3)c3cc[nH]c3n1)N(C(=O)CN(C)C)CC2 [Example 155, 2-[(2-{[1-(N,N-dimethylglycyl)-5-(methyloxy)-2,3-dihydro-1H-indol-6-yl]amino}-1H-pyrrolo[2,3-d]pyrimidin-4-yl)amino]-4,6-difluoro-N-[(4-fluorophenyl)methyl]benzamide], the IC50 (human IR (hIR)) was 1.26 to 3.98 nM, the IC50 (Colo205) was > 1000 nM and the IC50 [1] was 100 to 500 nM. The IC50 [2] was 100 to 500 nM.
With CCCN1CCCC(c2ccc(Nc3nc(Nc4cc(F)ccc4C(N)=O)c4cc[nH]c4n3)c(OC)c2)C1 (stereo not drawn) [Example 71, 4-fluoro-2-[(2-{[2-(methyloxy)-4-(1-propyl-3-piperidinyl)phenyl]amino}-1H-pyrrolo[2,3-d]pyrimidin-4-yl)amino]benzamide] the IC50 (human IR (hIR)) was 0.251 to 1 nM, the IC50 (Colo205) was < 250 nM and the IC50 [1] was < 100 nM. It also gave an IC50 [2] of 100 to 500 nM.
For CCN(CCO)CC(=O)N1CCc2cc(OC)c(Nc3nc(Nc4cccc(F)c4C(N)=O)c4cc[nH]c4n3)cc21 [Example 177, 2-[(2-{[1-[N-ethyl-N-(2-hydroxyethyl)glycyl]-5-(methyloxy)-2,3-dihydro-1H-indol-6-yl]amino}-1H-pyrrolo[2,3-d]pyrimidin-4-yl)amino]-6-fluorobenzamide], the IC50 (human IR (hIR)) was 1.26 to 3.98 nM, the IC50 (Colo205) was > 1000 nM and the IC50 [1] was 100 to 500 nM. The IC50 [2] was 100 to 500 nM.
In the case of COc1cc(C2=CCN(C(C)C)CC2)ccc1Nc1nc(Nc2cc(F)ccc2C(N)=O)c2cc[nH]c2n1 [Example 72, 4-fluoro-2-[(2-{[4-[1-(1-methylethyl)-1,2,3,6-tetrahydro-4-pyridinyl]-2-(methyloxy)phenyl]amino}-1H-pyrrolo[2,3-d]pyrimidin-4-yl)amino]benzamide], the IC50 (human IR (hIR)) is reported as 0.251 to 1 nM, the IC50 (Colo205) is reported as 250 to 1000 nM and the IC50 [1] is reported as < 100 nM. The IC50 [2] was 100 to 500 nM.
With COc1cc(N2CCOC[C@@H]2C)ccc1Nc1nc(Nc2cc(F)c(F)cc2C(N)=O)c2cc[nH]c2n1 [Example 105, 4,5-difluoro-2-[(2-{[4-[(3S)-3-methyl-4-morpholinyl]-2-(methyloxy)phenyl]amino}-1H-pyrrolo[2,3-d]pyrimidin-4-yl)amino]benzamide] the IC50 (human IR (hIR)) was 0.251 to 1 nM, the IC50 (Colo205) was < 250 nM and the IC50 [1] was < 100 nM. For the same molecule, the IC50 [2] was < 100 nM.
